Results taken from ChEMBL document CHEMBL4382233, “Discovery of novel arylethenesulfonyl fluorides as potential candidates against methicillin-resistant of Staphylococcus aureus (MRSA) for overcoming multidrug resistance of bacterial infections” (2019).
≈ marks a conversion by molar mass, not a printed value.

Experiments:
Assay type in all cases: functional
[1] = system: Staphylococcus haemolyticus; experiment: Antibacterial activity against methicillin-resistant Staphylococcus haemolyticus assessed as zone of inhibition at 50 ug/mL after 24 hrs by agar disc diffusion method; conditions: read-out: IZ
Staphylococcus aureus [2] = experiment: Antibacterial activity against methicillin-resistant Staphylococcus aureus assessed as zone of inhibition at 200 ng/mL after 24 hrs by agar disc diffusion method; conditions: read-out: IZ
[3] = system: Staphylococcus haemolyticus; experiment: Antibacterial activity against methicillin-resistant Staphylococcus haemolyticus after overnight incubation by micro broth dilution analysis
Staphylococcus aureus [4] = experiment: Antibacterial activity against methicillin-resistant Staphylococcus aureus assessed as zone of inhibition at 400 ng/mL after 24 hrs by agar disc diffusion method; conditions: read-out: IZ
Staphylococcus aureus [5] = experiment: Antibacterial activity against methicillin-resistant Staphylococcus aureus after overnight incubation by micro broth dilution analysis
Staphylococcus aureus [6] = experiment: Antibacterial activity against methicillin-resistant Staphylococcus aureus assessed as zone of inhibition at 800 ng/mL after 24 hrs by agar disc diffusion method; conditions: read-out: IZ
[7] = system: Staphylococcus epidermidis; experiment: Antibacterial activity against methicillin-resistant Staphylococcus epidermidis assessed as zone of inhibition at 20 ug/mL after 24 hrs by agar disc diffusion method; conditions: read-out: IZ
Staphylococcus aureus [8] = experiment: Antibacterial activity against methicillin-resistant Staphylococcus aureus assessed as zone of inhibition at 50 ug/mL after 24 hrs by agar disc diffusion method; conditions: read-out: IZ
[9] = system: Staphylococcus epidermidis; experiment: Antibacterial activity against methicillin-resistant Staphylococcus epidermidis after overnight incubation by micro broth dilution analysis
[10] = system: Staphylococcus epidermidis; experiment: Antibacterial activity against methicillin-resistant Staphylococcus epidermidis assessed as zone of inhibition at 800 ng/mL after 24 hrs by agar disc diffusion method; conditions: read-out: IZ
[11] = system: Staphylococcus epidermidis; experiment: Antibacterial activity against methicillin-resistant Staphylococcus epidermidis assessed as zone of inhibition at 200 ng/mL after 24 hrs by agar disc diffusion method; conditions: read-out: IZ
[12] = system: Staphylococcus epidermidis; experiment: Antibacterial activity against methicillin-resistant Staphylococcus epidermidis assessed as zone of inhibition at 400 ng/mL after 24 hrs by agar disc diffusion method; conditions: read-out: IZ

Compound | zone of inhibition at 50 µg/mL [1] [mm] | zone of inhibition at 0.2 µg/mL (Staphylococcus aureus [2]) [mm] | MIC99 [3] [µg/mL] | zone of inhibition at 0.4 µg/mL (Staphylococcus aureus [4]) [mm] | MIC99 (Staphylococcus aureus [5]) [µg/mL] | zone of inhibition at 0.8 µg/mL (Staphylococcus aureus [6]) [mm] | zone of inhibition at 20 µg/mL [7] [mm] | zone of inhibition at 50 µg/mL (Staphylococcus aureus [8]) [mm] | MIC99 [9] [µg/mL] | zone of inhibition at 0.8 µg/mL [10] [mm] | zone of inhibition at 0.2 µg/mL [11] [mm] | zone of inhibition at 0.4 µg/mL [12] [mm]
O=S(=O)(F)/C=C/c1ccsc1 | 4.52 | 3.2 | 48 (≈ 250 µM) | 4.2 | 16.6 (≈ 86.4 µM) | 4.5 | 8.5 | 8.2 | 66.1 (≈ 344 µM) |  |  | 
CC(C)c1cccc(/C=C/S(=O)(=O)F)c1 | 4.2 | 3.1 | 43 (≈ 189 µM) | 3.5 | 16.1 (≈ 70.3 µM) | 4.2 | 18 | 20.1 | 0.81 (≈ 3.55 µM) | 15.1 | 9.2 | 12.2
O=S(=O)(F)/C=C/c1cccc(C(F)(F)F)c1 | 4.2 | 4.1 | 43.2 (≈ 170 µM) | 5.4 | 0.836 (≈ 3.29 µM) | 7.7 | 4.1 | 10.1 | 40.1 (≈ 158 µM) |  |  | 
O=S(=O)(F)/C=C/C=C/c1cccc(C(F)(F)F)c1 | 4.5 |  | 55 (≈ 196 µM) |  | 44.1 (≈ 157 µM) |  | 8.5 | 6.2 | 0.822 (≈ 2.93 µM) | 8.5 | 6.2 | 7.1
O=S(=O)(F)/C=C/c1cc2ccccc2s1 | 4.5 | 4.4 | 63.1 (≈ 261 µM) | 6.3 | 55 (≈ 227 µM) | 8.5 | 5.2 | 8.2 | 70.2 (≈ 290 µM) |  |  | 
COc1cc(/C=C/S(=O)(=O)F)cc(OC)c1 | 4.5 | 1.2 | 50 (≈ 203 µM) | 13.1 | 0.81 (≈ 3.29 µM) | 15.1 | 5.3 | 18.1 | 57.1 (≈ 232 µM) |  |  | 
CC(=O)c1ccccc1/C=C/S(=O)(=O)F | 4.1 | 3.5 | 50.2 (≈ 220 µM) | 4.1 | 16.1 (≈ 70.7 µM) | 5.4 | 10.2 | 8.2 | 0.816 (≈ 3.58 µM) | 10.5 | 3.3 | 4.2
O=S(=O)(F)/C=C/c1cccc2c1sc1ccccc12 | 4.5 | 3.5 | 66 (≈ 226 µM) | 4.4 | 48.2 (≈ 165 µM) | 4.5 | 4.1 | 8.1 | 55 (≈ 188 µM) |  |  | 
O=S(=O)(F)/C=C/c1ccc(F)cc1 | 4.2 | 3.5 | 57.3 (≈ 281 µM) | 4.1 | 16.1 (≈ 79 µM) | 4.5 | 5.2 | 10.1 | 61.1 (≈ 299 µM) |  |  | 
O=S(=O)(F)/C=C/c1ccc(Br)cc1 | 6.1 |  | 66.1 (≈ 249 µM) |  | 48.2 (≈ 182 µM) |  | 7.3 | 7.5 | 0.837 (≈ 3.16 µM) | 7.5 | 5.2 | 6.2
O=S(=O)(F)/C=C/c1ccc(F)cc1F | 3.5 | 3.1 | 55.1 (≈ 248 µM) | 3.5 | 16.1 (≈ 72.3 µM) | 4.1 | 3.7 | 14.1 | 47 (≈ 212 µM) |  |  | 
Cc1ccc(/C=C/S(=O)(=O)F)c(C)c1 | 3.5 |  | 43.3 (≈ 202 µM) |  | 43.1 (≈ 201 µM) |  | 10.7 | 6.5 | 0.813 (≈ 3.79 µM) | 11.1 | 2.5 | 6.2
O=S(=O)(F)/C=C/c1cc(O)cc(O)c1 | 4.2 | 3.5 | 49 (≈ 225 µM) | 4.2 | 17 (≈ 78 µM) | 4.5 | 9.3 | 12.2 | 0.846 (≈ 3.88 µM) | 6.2 | 3.1 | 4.2
O=S(=O)(F)/C=C/c1cccc(F)c1 | 4.2 | 3.5 | 44.1 (≈ 216 µM) | 4.4 | 15.2 (≈ 74.3 µM) | 5.1 | 3.5 | 9.1 | 72.3 (≈ 354 µM) |  |  | 
O=S(=O)(F)/C=C/c1ccccc1O | 3.5 | 3.5 | 61 (≈ 302 µM) | 5.2 | 0.853 (≈ 4.22 µM) | 7.7 | 6.2 | 12.1 | 58 (≈ 287 µM) |  |  | 
O=S(=O)(F)/C=C/C=C/c1cccc(F)c1 | 5.5 |  | 50.1 (≈ 218 µM) |  | 48 (≈ 209 µM) |  | 8.3 | 7.2 | 0.82 (≈ 3.56 µM) | 8.3 | 4.2 | 6.1
COc1cc(/C=C/C=C/S(=O)(=O)F)cc(OC)c1 | 4.2 | 5.2 | 56.6 (≈ 208 µM) | 7.1 | 61.1 (≈ 225 µM) | 8.5 | 4.1 | 16.1 | 57.1 (≈ 210 µM) |  |  | 
O=S(=O)(F)/C=C/c1ccc(O)cc1 | 3.5 | 3.2 | 57.1 (≈ 283 µM) | 4.3 | 16.1 (≈ 79.4 µM) | 5.2 | 4.5 | 10.2 | 45 (≈ 223 µM) |  |  | 
O=S(=O)(F)/C=C/c1ccc(OC(F)(F)F)cc1 | 4.3 |  | 61.2 (≈ 227 µM) |  | 40.2 (≈ 149 µM) |  | 17.6 | 6.1 | 0.81 (≈ 3 µM) | 10.4 | 7.1 | 8.3
CC(C)(C)c1ccc(/C=C/C=C/S(=O)(=O)F)cc1 | 4.5 |  | 65.3 (≈ 243 µM) |  | 58.2 (≈ 217 µM) |  | 5.5 | 6.3 | 62.1 (≈ 232 µM) |  |  | 
